Experimental data as given in patent US10975056B2 (GlaxoSmithKline Intellectual Property Development Limited, priority 2016, dated 2021).
Where a name gives a salt, the structure may show the parent alone. Read-outs that look alike come from different tables or passages of the source.

How the values were obtained:
DNMT1 = DNMT1 (Homo sapiens, UniProt P26358); test: DNMT1 biochemical activity, breaklight assay and/or SPA assay
DNMT3B = DNMT3B (Homo sapiens (Human), UniProt Q9UBC3); test: DNMT3B breaklight assay; type: biochemical
[1] = system: erythroid progenitor cells (EPCs); test: Fetal hemoglobin (HbF) ELISA in day 7 erythroid progenitor cells; type: cell-based, human; details: Homo sapiens, Erythroid progenitor cell, HbF ELISA, day 7 EPCs, 5 days; read-out: EPC ELISA (pEC50 category) (converted);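 also: for fetal hemoglobin induction normalized to vehicle-treated cells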
Procedure, shortened: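 Read-out was OD450 from an HRP/TMB sandwich ELISA on lysates, normalized to DMSO-only control wells. Thawed day 7 EPCs from human marrow CD34+ cells had been treated for 5 days at 37° C with Compound A, 22 concentrations […].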

[2] = binned activity in either the breaklight or the SPA assay
[3] = read-out: DNMT3B Breaklight IC50
[4] = breaklight assay and/or SPA assay, repeated experimental runs, read-out: average pIC50 against DNMT1 (converted)
[5] = breaklight assay and/or SPA assay, repeated experimental runs
[6] = binned activity in either the breaklight or the SPA assay, read-out: DNMT1 BioChemical (pIC50 category) (converted)

Chain of DNMT1 (P26358 whole entry, looked up): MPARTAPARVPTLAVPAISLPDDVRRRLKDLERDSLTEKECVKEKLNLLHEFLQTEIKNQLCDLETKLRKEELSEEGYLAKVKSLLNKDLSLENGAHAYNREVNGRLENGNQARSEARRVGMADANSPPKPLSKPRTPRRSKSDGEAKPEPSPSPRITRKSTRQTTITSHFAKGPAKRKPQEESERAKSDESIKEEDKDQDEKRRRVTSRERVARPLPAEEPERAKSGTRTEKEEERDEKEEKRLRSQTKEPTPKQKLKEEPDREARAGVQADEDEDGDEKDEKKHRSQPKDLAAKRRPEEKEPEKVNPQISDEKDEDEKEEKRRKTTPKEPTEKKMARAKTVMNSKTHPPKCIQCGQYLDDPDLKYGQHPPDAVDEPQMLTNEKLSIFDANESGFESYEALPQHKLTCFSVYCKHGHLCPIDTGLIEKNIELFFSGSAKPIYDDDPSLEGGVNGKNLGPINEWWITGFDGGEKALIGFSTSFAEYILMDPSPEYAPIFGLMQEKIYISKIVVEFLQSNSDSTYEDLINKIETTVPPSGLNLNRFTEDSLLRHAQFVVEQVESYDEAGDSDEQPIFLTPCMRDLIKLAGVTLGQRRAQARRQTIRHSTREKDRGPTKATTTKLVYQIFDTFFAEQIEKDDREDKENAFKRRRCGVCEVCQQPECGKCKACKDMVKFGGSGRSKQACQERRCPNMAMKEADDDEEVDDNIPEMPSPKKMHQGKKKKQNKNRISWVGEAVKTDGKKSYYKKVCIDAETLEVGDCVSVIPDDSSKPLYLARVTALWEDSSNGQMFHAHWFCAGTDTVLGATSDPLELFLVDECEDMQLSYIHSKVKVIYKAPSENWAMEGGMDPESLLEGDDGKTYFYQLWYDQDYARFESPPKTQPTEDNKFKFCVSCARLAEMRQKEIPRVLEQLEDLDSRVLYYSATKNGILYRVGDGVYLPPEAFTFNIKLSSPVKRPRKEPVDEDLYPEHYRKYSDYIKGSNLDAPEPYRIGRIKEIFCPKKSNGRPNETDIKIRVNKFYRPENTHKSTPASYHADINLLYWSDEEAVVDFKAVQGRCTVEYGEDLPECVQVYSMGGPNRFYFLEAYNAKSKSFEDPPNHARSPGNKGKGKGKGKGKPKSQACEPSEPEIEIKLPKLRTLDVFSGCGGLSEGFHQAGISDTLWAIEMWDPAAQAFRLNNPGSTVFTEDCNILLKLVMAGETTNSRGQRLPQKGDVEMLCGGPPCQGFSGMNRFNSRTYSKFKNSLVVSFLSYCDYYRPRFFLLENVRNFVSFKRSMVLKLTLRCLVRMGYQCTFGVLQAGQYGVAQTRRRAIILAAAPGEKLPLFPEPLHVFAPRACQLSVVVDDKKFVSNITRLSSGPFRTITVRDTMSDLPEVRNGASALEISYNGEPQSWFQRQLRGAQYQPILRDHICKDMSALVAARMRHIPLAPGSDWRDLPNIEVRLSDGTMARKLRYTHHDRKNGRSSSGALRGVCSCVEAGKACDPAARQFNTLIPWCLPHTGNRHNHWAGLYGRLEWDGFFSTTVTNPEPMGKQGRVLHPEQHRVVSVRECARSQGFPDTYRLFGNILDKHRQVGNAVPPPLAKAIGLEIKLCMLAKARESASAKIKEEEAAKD

Row | DNMT1 BioChemical (pIC50 category) (DNMT1; [2]) | IC50 (DNMT3B; [3]) | EC50 [1] | IC50 (DNMT1; [4]) | average pIC50 against DNMT1 (DNMT1; [5]) | IC50 (DNMT1; [6]) | IC50 (DNMT3B; repeated experimental runs, read-out: average IC50, DNMT3B breaklight assay) | SMILES | average pIC50 against DNMT1 (DNMT1; breaklight assay and/or SPA assay, repeated experimental runs, Trifluoroacetic Acid Salt)
1 | D (Category D: ≥6.5) | 254000 nM | < 316 nM |  |  |  |  | CCc1c(C#N)c(SCc2ccc(S(=O)(=O)NC)cc2)nc(N2CCCN(C)CC2)c1C#N [Example 104, 4-(((3,5-Dicyano-4-ethyl-6-(4-methyl-1,4-diazepan-1-yl)pyridin-2-yl)thio)methyl)-N-methylbenzenesulfonamide] | 
2 | D (Category D: ≥6.5) | > 250000 nM | < 316 nM | 200 nM | > 6.5 |  |  | CCc1c(C#N)c(SCc2ccc(CNC(=O)CO)cc2)nc(N2CCCN(C)CC2)c1C#N [Example 86, N-(4-(((3,5-Dicyano-4-ethyl-6-(4-methyl-1,4-diazepan-1-yl)pyridin-2-yl)thio)methyl)benzyl)-2-hydroxyacetamide] | 
3 | D (Category D: ≥6.5) | > 250000 nM | < 316 nM |  | > 6.5 |  |  | CCc1c(C#N)c(SCc2ccc(CC(N)=O)cc2)nc(N2CCCN(C)CC2)c1C#N [Example 83, 2-(4-(((3,5-dicyano-4-ethyl-6-(4-methyl-1,4-diazepan-1-yl)pyridin-2-yl)thio)methyl)phenyl)acetamide] | 
4 | D (Category D: ≥6.5) | > 250000 nM | < 316 nM |  |  |  |  | CCc1c(C#N)c(SCc2ccc(CC(=O)NC)cc2)nc(N2CCCN(C)CC2)c1C#N [Example 84, 2-(4-(((3,5-Dicyano-4-ethyl-6-(4-methyl-1,4-diazepan-1-yl)pyridin-2-yl)thio)methyl)phenyl)-N-methylacetamide] | 
5 |  | > 250000 nM | 1000 to 31600 nM | ≥ 1000 nM |  | 1000 to 31600 nM |  | CCc1c(C#N)c(SCc2ccc(=O)[nH]c2)nc(N(C)C)c1C#N [Example 74, 2-(Dimethylamino)-4-ethyl-6-(((6-oxo-1,6-dihydropyridin-3-yl)methyl)thio)pyridine-3,5-dicarbonitrile] | 
6 |  | > 500000 nM | 316 to 1000 nM |  |  |  | > 500000 nM | CCc1c(C#N)c(SC(C(N)=O)c2ccccc2)nc(N(C)C)c1C#N (centres unmarked) [Example 3, 2-{[3,5-dicyano-6-(dimethylamino)-4-ethylpyridin-2-yl]sulfanyl}-2-phenylacetamide] | 
7 |  | > 250000 nM | > 31600 nM | ≥ 1000 nM |  | 316 to 1000 nM |  | CCc1c(C#N)c(SCc2ccccc2)nc(N2CCC(N)CC2)c1C#N [Example 81, 2-(4-Aminopiperidin-1-yl)-6-(benzylthio)-4-ethylpyridine-3,5-dicarbonitrile] | 
8 | D (Category D: ≥6.5) | > 250000 nM | < 316 nM |  | > 6.5 |  |  | CCc1c(C#N)c(SCc2ccc(CNC(C)=O)cc2)nc(N2CCCN(C)CC2)c1C#N [Example 77, N-(4-(((3,5-Dicyano-4-ethyl-6-(4-methyl-1,4-diazepan-1-yl)pyridin-2-yl)thio)methyl)benzyl)acetamide] | 
9 |  | > 250000 nM | 316 to 1000 nM |  |  |  |  | CCc1c(C#N)c(SCc2ccc(S(N)(=O)=O)cc2)nc(N2CCCN(C)CC2)c1C#N [Example 76, 4-(((3,5-Dicyano-4-ethyl-6-(4-methyl-1,4-diazepan-1-yl)pyridin-2-yl)thio)methyl)benzenesulfonamide] | 
10 | D (Category D: ≥6.5) |  | 316 to 1000 nM |  |  |  |  | CCc1c(C#N)c(SC(C(N)=O)c2ccccc2)nc(N(C)CCN2CC[C@H](N)C2)c1C#N (stereo partly drawn) [Example 535, 2-((6-((2-((S)-3-aminopyrrolidin-1-yl)ethyl)(methyl)amino)-3,5-dicyano-4-ethylpyridin-2-yl)thio)-2-phenylacetamide] | 
11 | D (Category D: ≥6.5) |  | 316 to 1000 nM | 200 nM | > 6.5 |  |  | CCc1c(C#N)c(S[C@@H](C(N)=O)c2ccccc2)nc(N2CC[C@H](O)C2)c1C#N [Example 168, (R)-2-((3,5-Dicyano-4-ethyl-6-((S)-3-hydroxypyrrolidin-1-yl)pyridin-2-yl)thio)-2-phenylacetamide] | 
12 |  |  | 1000 to 31600 nM |  |  | 316 to 1000 nM |  | CCc1c(C#N)c(S[C@@H](C(N)=O)c2ccccc2)nc(N2CC[C@@H](O)C2)c1C#N [Example 134, (R)-2-((3,5-Dicyano-4-ethyl-6-((R)-3-hydroxypyrrolidin-1-yl)pyridin-2-yl)thio)-2-phenylacetamide] | 
13 | D (Category D: ≥6.5) |  | < 316 nM |  |  |  |  | CCc1c(C#N)c(SCc2ccc(N(C)S(C)(=O)=O)cc2)nc(N(C)CCNC)c1C#N [Example 471, N-(4-(((3,5-dicyano-4-ethyl-6-(methyl(2-(methylamino)ethyl)amino)pyridin-2-yl)thio)methyl)phenyl)-N-methylmethanesulfonamide] | 
14 | D (Category D: ≥6.5) |  | 316 to 1000 nM |  |  |  |  | C[C@@H](N)C(=O)NC1CCN(c2nc(SC(C(N)=O)c3ccccc3)c(C#N)c(C3CC3)c2C#N)CC1 (stereo partly drawn) [Example 372, (2R)-2-Amino-N-(1-(6-((2-amino-2-oxo-1-phenylethyl)thio)-3,5-dicyano-4-cyclopropylpyridin-2-yl)piperidin-4-yl)propanamide] | 
15 |  |  | > 31600 nM |  |  | 1000 to 31600 nM |  | CCc1c(C#N)c(SCc2ccc(CN)cc2)nc(N(C)C)c1C#N [Example 272, 2-((4-(Aminomethyl)benzyl)thio)-6-(dimethylamino)-4-ethylpyridine-3,5-dicarbonitrile, Hydrochloride] | 

Row | SMILES | DNMT1 BioChemical (pIC50 category) (DNMT1; [2]) | IC50 (DNMT3B; [3]) | EC50 [1] | IC50 (DNMT1; [4]) | average pIC50 against DNMT1 (DNMT1; [5]) | IC50 (DNMT1; [6]) | IC50 (DNMT3B; repeated experimental runs, read-out: average IC50, DNMT3B breaklight assay) | average pIC50 against DNMT1 (DNMT1; breaklight assay and/or SPA assay, repeated experimental runs, Trifluoroacetic Acid Salt)
16 | CCc1c(C#N)c(SC(C(N)=O)c2ccccc2)nc(N2CCC(NC(=O)[C@H](C)N)CC2)c1C#N (stereo partly drawn) [Example 138, (2S)-2-Amino-N-(1-(6-((2-amino-2-oxo-1-phenylethyl)thio)-3,5-dicyano-4-ethylpyridin-2-yl)piperidin-4-yl)propanamide, Trifluoroacetic Acid Salt] | D (Category D: ≥6.5) | 167000 nM | < 316 nM | 100 nM |  |  |  | > 6.5
17 | N#Cc1c(SC(C(N)=O)c2ccccc2)nc(N2CCC(NC(=O)CN)CC2)c(C#N)c1C1CC1 (centres unmarked) [Example 642, 2-amino-N-(1-(6-((2-amino-2-oxo-1-phenylethyl)thio)-3,5-dicyano-4-cyclopropylpyridin-2-yl)piperidin-4-yl)acetamide formate] | D (Category D: ≥6.5) |  | 1000 to 31600 nM |  |  |  |  | 
18 | CCc1c(C#N)c(SC(C(N)=O)c2ccccc2)nc(N2CCC(NC(=O)CN)CC2)c1C#N (centres unmarked) [Example 137, 2-Amino-N-(1-(6-((2-amino-2-oxo-1-phenylethyl)thio)-3,5-dicyano-4-ethylpyridin-2-yl)piperidin-4-yl)acetamide, Trifluoroacetic Acid Salt] | D (Category D: ≥6.5) |  | 316 to 1000 nM |  | > 6.5 |  |  | 
